According to patent US10750743B2, “Pyridazinone herbicides” (E.I. DU PONT DE NEMOURS AND COMPANY, priority 2015, dated 2020):

Columns and labels:
Type in all cases: in vivo
[1] = system: ryegrass, It. (Italian ryegrass, Lolium multiflorum); test: Test A postemergence application, visual injury rating; details: 0 to 100 scale, 0 no effect, 100 complete control
Excerpt: (§1) Seeds of plant species selected from barnyardgrass (Echinochloa crus-galli), kochia (Kochia scoparia), ragweed (common ragweed, Ambrosia elatior), ryegrass, It. (Italian ryegrass, Lolium multiflorum), foxtail, giant (giant foxtail, Setaria faberii), and pigweed (Amaranthus retroflexus), were planted into a blend of loam soil and sand and treated preemergence with a directed soil spray using test chemicals formulated in a non-phytotoxic solvent mixture which included a surfactant.
(§2) At the same time, plants selected from these weed species and also wheat (Triticum aestivum), corn (Zea mays), blackgrass (Alopecurus myosuroides), and galium (catchweed bedstraw, Galium aparine), were planted in pots containing the same blend of loam soil and sand and treated with postemergence applications of test chemicals formulated in the same manner Plants ranged in height from 2 to 10 cm and were in the one- to two-leaf stage for the postemergence treatment. Treated plants and untreated controls were maintained in a greenhouse for approximately 10 d, after which time all treated plants were compared to untreated controls and visually evaluated for injury. Plant response ratings, summarized in Table A, are based on a 0 to 100 scale where 0 is no effect and 100 is complete control. A dash (-) response means no test result.

[2] = system: foxtail, giant (giant foxtail, Setaria faberii); test: as above; details: 0 to 100 scale, 0 no effect, 100 complete control
Excerpt: as §1, §2

corn (Zea mays) = test: as above; details: 0 to 100 scale, 0 no effect, 100 complete control
Excerpt: as §1, §2

[3] = system: barnyardgrass (Echinochloa crus-galli); test: as above; details: 0 to 100 scale, 0 no effect, 100 complete control
Excerpt: as §1, §2

[4] = system: ragweed (common ragweed, Ambrosia elatior); test: as above; details: 0 to 100 scale, 0 no effect, 100 complete control
Excerpt: as §1, §2

[5] = system: wheat (Triticum aestivum); test: as above; details: 0 to 100 scale, 0 no effect, 100 complete control
Excerpt: as §1, §2

[6] = system: galium (catchweed bedstraw, Galium aparine); test: as above; details: 0 to 100 scale, 0 no effect, 100 complete control
Excerpt: as §1, §2

[7] = system: pigweed (Amaranthus retroflexus); test: as above; details: 0 to 100 scale, 0 no effect, 100 complete control
Excerpt: as §1, §2

kochia (Kochia scoparia) [8] = test: as above; details: 0 to 100 scale, 0 no effect, 100 complete control
Excerpt: as §1, §2

[9] = system: blackgrass (Alopecurus myosuroides); test: as above; details: 0 to 100 scale, 0 no effect, 100 complete control
Excerpt: as §1, §2

[10] = system: ryegrass, It. (Italian ryegrass, Lolium multiflorum); test: Test A preemergence, directed soil spray, visual injury rating; details: 0 is no effect, 100 is complete control
Excerpt: as §1, §2

[11] = system: foxtail, giant (giant foxtail, Setaria faberii); test: as above; details: 0 is no effect, 100 is complete control
Excerpt: as §1, §2

[12] = system: barnyardgrass (Echinochloa crus-galli); test: as above; details: 0 is no effect, 100 is complete control
Excerpt: as §1, §2

[13] = system: ragweed (common ragweed, Ambrosia elatior); test: as above; details: 0 is no effect, 100 is complete control
Excerpt: as §1, §2

[14] = system: pigweed (Amaranthus retroflexus); test: as above; details: 0 is no effect, 100 is complete control
Excerpt: as §1, §2

kochia (Kochia scoparia) [15] = test: as above; details: 0 is no effect, 100 is complete control
Excerpt: as §1, §2

Compound | Ryegrass, It. plant response rating ([1]; 125 g ai/ha) | Ryegrass, It. plant response rating ([1]; 500 g ai/ha) | Foxtail, Giant plant response rating ([2]; 125 g ai/ha) | Foxtail, Giant plant response rating ([2]; 500 g ai/ha) | Corn plant response rating (corn (Zea mays); 125 g ai/ha) | Corn plant response rating (corn (Zea mays); 500 g ai/ha) | Barnyardgrass plant response rating ([3]; 125 g ai/ha) | Barnyardgrass plant response rating ([3]; 500 g ai/ha) | Ragweed plant response rating ([4]; 125 g ai/ha) | Ragweed plant response rating ([4]; 500 g ai/ha) | Wheat plant response rating ([5]; 125 g ai/ha) | Wheat plant response rating ([5]; 500 g ai/ha) | Galium plant response rating ([6]; 125 g ai/ha) | Galium plant response rating ([6]; 500 g ai/ha) | Pigweed plant response rating ([7]; 125 g ai/ha) | Pigweed plant response rating ([7]; 500 g ai/ha) | Kochia plant response rating (kochia (Kochia scoparia) [8]; 125 g ai/ha) | Kochia plant response rating (kochia (Kochia scoparia) [8]; 500 g ai/ha) | Blackgrass plant response rating ([9]; 125 g ai/ha) | Blackgrass plant response rating ([9]; 500 g ai/ha) | further results
CCOC(=O)Oc1c(C)nn(C)c(=O)c1-c1c(C)sc2ncc(C)cc12 [Compound 2] | 30 | 90 | 0 | 20 | 0 | 0 | 0 | 20 | 20 | 50 | 0 | 20 | 40 | 80 | 70 | 90 | 30 | 90 | 20 | 40 | Plant response rating (0 to 100 scale), Ryegrass, It. ([10]; 125 g ai/ha): 30; Plant response rating (0 to 100 scale), Ryegrass, It. ([10]; 500 g ai/ha): 100; Plant response rating (0 to 100 scale), Foxtail, Giant ([11]; 125 g ai/ha): 0; Plant response rating (0 to 100 scale), Foxtail, Giant ([11]; 500 g ai/ha): 20; Plant response rating (0 to 100 scale), Barnyardgrass ([12]; 125 g ai/ha): 0; Plant response rating (0 to 100 scale), Barnyardgrass ([12]; 500 g ai/ha): 20; Plant response rating (0 to 100 scale), Ragweed ([13]; 125 g ai/ha): 0; Plant response rating (0 to 100 scale), Ragweed ([13]; 500 g ai/ha): 20; Plant response rating (0 to 100 scale), Pigweed ([14]; 125 g ai/ha): 0; Plant response rating (0 to 100 scale), Pigweed ([14]; 500 g ai/ha): 80; Plant response rating (0 to 100 scale), Kochia (kochia (Kochia scoparia) [15]; 125 g ai/ha): 0; Plant response rating (0 to 100 scale), Kochia (kochia (Kochia scoparia) [15]; 500 g ai/ha): 60
Cc1cnc2sc(C)c(-c3c(O)c(C)nn(C)c3=O)c2c1 [Compound 3] | 20 | 80 | 0 | 30 | 0 | 0 | 0 | 30 | 20 | 50 | 0 | 20 | 30 | 80 | 80 | 90 | 30 | 90 | 20 | 40 | Plant response rating (0 to 100 scale), Ryegrass, It. ([10]; 125 g ai/ha): 30; Plant response rating (0 to 100 scale), Ryegrass, It. ([10]; 500 g ai/ha): 70; Plant response rating (0 to 100 scale), Foxtail, Giant ([11]; 125 g ai/ha): 0; Plant response rating (0 to 100 scale), Foxtail, Giant ([11]; 500 g ai/ha): 10; Plant response rating (0 to 100 scale), Barnyardgrass ([12]; 125 g ai/ha): 0; Plant response rating (0 to 100 scale), Barnyardgrass ([12]; 500 g ai/ha): 10; Plant response rating (0 to 100 scale), Ragweed ([13]; 125 g ai/ha): 0; Plant response rating (0 to 100 scale), Ragweed ([13]; 500 g ai/ha): 40; Plant response rating (0 to 100 scale), Pigweed ([14]; 125 g ai/ha): 40; Plant response rating (0 to 100 scale), Pigweed ([14]; 500 g ai/ha): 80; Plant response rating (0 to 100 scale), Kochia (kochia (Kochia scoparia) [15]; 125 g ai/ha): 0; Plant response rating (0 to 100 scale), Kochia (kochia (Kochia scoparia) [15]; 500 g ai/ha): 20
CCC(=O)Oc1c(C)nn(C)c(=O)c1-c1cccc2sccc12 [Compound 4] | 80 | 100 | 0 | 20 | 0 | 0 | 0 | 20 | 0 | 40 | 0 | 0 | 70 | 90 | 20 | 30 | 0 | 20 | 20 | 30 | Plant response rating (0 to 100 scale), Ryegrass, It. ([10]; 125 g ai/ha): 40; Plant response rating (0 to 100 scale), Ryegrass, It. ([10]; 500 g ai/ha): 100; Plant response rating (0 to 100 scale), Foxtail, Giant ([11]; 125 g ai/ha): 0; Plant response rating (0 to 100 scale), Foxtail, Giant ([11]; 500 g ai/ha): 20; Plant response rating (0 to 100 scale), Barnyardgrass ([12]; 125 g ai/ha): 0; Plant response rating (0 to 100 scale), Barnyardgrass ([12]; 500 g ai/ha): 20; Plant response rating (0 to 100 scale), Ragweed ([13]; 125 g ai/ha): 0; Plant response rating (0 to 100 scale), Ragweed ([13]; 500 g ai/ha): 20; Plant response rating (0 to 100 scale), Pigweed ([14]; 125 g ai/ha): 40; Plant response rating (0 to 100 scale), Pigweed ([14]; 500 g ai/ha): 70; Plant response rating (0 to 100 scale), Kochia (kochia (Kochia scoparia) [15]; 125 g ai/ha): 0; Plant response rating (0 to 100 scale), Kochia (kochia (Kochia scoparia) [15]; 500 g ai/ha): 60
